Laboratory results as given in US20070276024A1, “Methods for Treating Diseases and Conditions with Inverse Agonists and for Screening for Agents Acting as Inverse Agonists” (Inverseon , Inc., priority 2003, published 2007).
Entries after “also recorded” stand apart in the source; their conditions may differ. Read-outs that look alike come from different tables or passages of the source.

Assays:
asthmatic mice [1] = experiment: Airway resistance (Raw) response to methacholine in murine model of asthma; format: in vivo, Balb/cJ mice
Method: Balb/cJ mice aged 6 weeks (Jackson Animal Laboratory, Bar Harbor, Maine) were housed under specific pathogen-free conditions and fed a chicken ovalbumin-free diet. The Animal Research Ethics Boards of both the University of Houston and the Baylor College of Medicine approved all experiments reported here. […] Mice were sensitized with subcutaneous injection of 25 μg of ovalbumin adsorbed to aluminum hydroxide on protocol days 2, 9, and 16. Subsequently, mice were given 50 μL of saline solution containing 25 μg of ovalbumin intranasally, on a daily basis, from protocol days 23 through 27. A group of ovalbumin-sensitized saline-challenged mice serves as controls for systemic sensitization and respiratory challenges with ovalbumin. Prior to intranasal administrations, mice were sedated with halothane vapor.
To examine the effects of duration of β-adrenergic ligand therapy on the phenotype of the murine model of asthma, the experimental drugs were administered either acutely or chronically to different groups of asthmatic mice.
Asthmatic mice on acute therapy were given a single intravenous bolus infusion of either β-adrenergic drug or normal saline on protocol day 28, 15 minutes before airway responsiveness to methacholine was determined. […] […] […] These concentrations were chosen based on those producing therapeutic effects in mice in previously published studies. The non-asthmatic mice were fed normal chow.
On protocol day 28, mice were anesthetized, tracheotomized, and connected to a computer-controlled small animal ventilator (Flexivent, Scientific Respiratory Equipment, Inc., Montreal, Canada). Airway resistance (Raw) was measured using the forced oscillation technique. The cellular composition of bronchoalveolar lavage fluid (BALF) was also determined.
To induce airway constriction, a solution containing 150 μg/mL of acetyl-α-methylcholine chloride (methacholine) (Sigma Chemical, St. Louis, Mo.) was infused intravenously at constant rates using a syringe infusion pump (Raze Scientific Instruments, Stanford, Conn.). […] Each methacholine dose was administered for 3 to 5 minutes, during which data were sampled at 1-minute intervals and then averaged.
The complex input impedance of the respiratory system was computed and the value of the real part of respiratory system impedance at 19.75 Hz was taken to reflect the magnitude of airway resistance (Raw). To examine the degree of airway responsiveness of each animal, the values for Raw as a function of methacholine doses were plotted. The largest value for Raw achieved in response to methacholine stimulation was referred to as Rawpeak. For mice that achieved a plateau in the methacholine dose-Raw response curve, the ED50 was calculated by linear interpolation using the GraphPad Prism4 (GraphPad Software, Inc.). […] The Bonferroni test was used to examine the statistical differences between experimental groups. The effects of acute drug treatments on baseline respiratory system mechanics were assessed using a two-tailed paired t-test. A value of P<0.05 was considered significant.
For these experiments, salbutamol was used for chronic administration at 0.5 mg/kg/day with a minipump and for acute administration at 0.15 mg/kg by i.v. bolus 15 minutes prior to challenge. Alprenolol was used at a high dose of 7200 ppm in chow or at a low dose of 720 ppm in chow. Carvedilol was used at a high dose of 2400 ppm in chow or at a low dose of 720 ppm in chow.
The airway resistance (Raw) is plotted as cm H2O ml^−1 s.

β2-adrenergic receptor [2] = molecular target: T1, β2-adrenergic receptor (Mus musculus, UniProt P18762); format: in vivo, mice; details: for increase of the level of β2-adrenergic receptors over the non-treated mice: chronic administration; for Bmax (receptor density) / βmax (receptor density): lung membranes, mean±SEM, n=3-5; for Bmax (receptor density): drug treatment 15 Minutes; for βmax (receptor density): drug treatment 28 Days
T1 sequence (P18762 whole entry): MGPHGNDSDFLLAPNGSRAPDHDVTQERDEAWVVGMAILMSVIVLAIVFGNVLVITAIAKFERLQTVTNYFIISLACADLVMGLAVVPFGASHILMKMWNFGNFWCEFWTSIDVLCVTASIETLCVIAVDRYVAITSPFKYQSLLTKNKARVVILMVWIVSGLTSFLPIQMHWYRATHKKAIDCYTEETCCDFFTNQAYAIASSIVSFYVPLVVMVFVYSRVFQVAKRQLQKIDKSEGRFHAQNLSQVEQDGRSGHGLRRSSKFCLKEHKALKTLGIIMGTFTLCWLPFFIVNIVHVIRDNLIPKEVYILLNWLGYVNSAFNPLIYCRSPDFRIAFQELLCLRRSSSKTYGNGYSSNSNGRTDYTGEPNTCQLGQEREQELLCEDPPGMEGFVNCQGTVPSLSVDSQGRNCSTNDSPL
Method: β2-adrenergic receptor numbers were measured in asthmatic mice as follows. […] Mice were sacrificed and lung membranes were isolated as follows. Frozen lung tissue was homogenized in an ice-cold buffer containing 0.32 M sucrose and 25 mM Tris (pH 7.4) using a polytron (Pro 200, Pro Scientific, Inc.). The homogenate was centrifuged at 1000×g for 10 min at 4° C. The resulting supernatant was centrifuged at 40,000×g for 20 min at 4° C. The pellet was suspended in an ice-cold 25 mM Tris-HCl buffer (pH 7.4) and centrifuged at 40,000'g for 20 min at 4° C. The final pellet was suspended in 200 μL of 25 mM Tris-HCl (pH 7.4); membrane protein concentration was determined by BCA protein assay kit. […] The incubation was done at 37° C. for 2 h and terminated by rapid vacuum filtration through glass fiber filters. The filters were washed three times with 250 μL of cold wash buffer (25 mM Tris-HCl, pH 7.4) and the radioactivity determined in a counter. […] Receptor densities are expressed as femtomoles of sites per milligram of protein. Bmax is determined by nonlinear regression of the saturation binding curves.

asthmatic mice [3] = experiment: Combination of carvedilol and salbutamol on airway hyperresponsiveness; format: in vivo, Balb/cJ mice; details: at the highest dose of methacholine; 28 days treatment
Method: Mice (Balb/cJ) aged 6 weeks were housed under specific pathogen-free conditions and fed a chicken ovalbumin-free diet. Mice were systemically sensitized with ovalbumin adsorbed to aluminum hydroxide. Mice were treated as follows: CAR/SAL 28D=for 28 days mice (n=6-12) were administered carvedilol (2400 ppm in animal chow) and salbutamol (subcutaneous delivery of 0.5 mg/kg/day in an Alzet #2400 osmotic minipump); NTX S/C=mice (n=6-12) no drug treatment for 28 days; CTRL=mice (n=6-12) no drug treatment for 28 days, not subsequently challenged; CARHD 28D=for 28 days mice (n=6-12) were administered carvedilol only (2400 ppm in animal chow); CARHD 28D SAL AC=for 28 days mice (n=6-12) were administered carvedilol (2400 ppm in animal chow) and 15 minutes prior to measuring airway hyperresponsiveness, salbutamol was administered at a dose of 1.2 mg.kg.
To measure airway hyperresponsiveness after 28 days, all mice except the CTRL (control) mice were challenged with ovalbumin and then all mice were anesthetized, tracheotomized, and connected to a Flexivent small animal ventilator to measure airway resistance (Raw) by the forced oscillation technique. To induce airway constriction, a solution containing 150 μg/mL of methacholine was infused using a syringe infusion pump. The methacholine infusion was started at 0.008 mL/min and its rate was doubled stepwise up to a maximum […]. […]

patients with CHF = details: cited from earlier work
[4] = system: sensitized and allergen-challenged mice; experiment: Aminophylline on acute airway effects of nadolol; format: in vivo
Method: Mice were sensitized to the allergen ovalbumin as described in Example 1.
At time point 1 (time=−10 min) baseline airway resistance of the mice was determined. At time point 2 (time=−5 min) methacholine was infused into mice to reach their EC70.

Phospholipase C (PLC-β1) = experiment: Ratio of phospholipase C to actin in cultured tracheal smooth muscle cells (immunoblot); format: cell-based; details: cells from asthmatic mice, chronic high dose treatment
Text: Cultured tracheal smooth muscle cells were obtained from mice exposed to the following treatments: NS/NC=nonasthmatic, non-challenged mice; S/C=asthmatic mice; Sal.Ac=asthmatic mice, acute salbutamol treatment; Sal.Ch=asthmatic mice, chronic salbutamol treatment; Nad.Ac=asthmatic mice, acute nadolol high dose treatment; and Nad.Ch=asthmatic mice, chronic nadolol high dose treatment.
After airway function experiments, the trachea were surgically removed from anesthetized mice that had been treated with drugs or vehicle. The trachea was minced and the cells plated and grown in culture. The smooth muscle cells grow faster and take over the culture dish. The cells were grown in medium which contained the drugs used in the treatment or vehicle controls. Phospholipase C (PLC-β1) was determined by immunoblotting with an antibody specific for the enzyme. Actin was used as a loading control and the amount of PLC-β1 was expressed as a ratio to actin.
The phospholipase C protein level was measured in these cultured cells and compared with the level of the structural protein actin as a baseline. The enzyme phospholipase C plays a key role in the pathway leading to asthmatic symptoms, as it cleaves a phosphodiester bond in membrane phospholipids, resulting in the formation of a 1,2-diglyceride. […]

asthmatic mice [5] = details: Callaerts-Vegh et al. 2004, cited from earlier work
β2-adrenergic receptor [6] = molecular target: T1, β2-adrenergic receptor; experiment: Immunohistochemistry of β2-adrenergic receptor levels in lungs; format: in vivo, mice; parameters: from tissue; host or cells: fixed lung sections of mice; details: chronic treatment, versus untreated animals
Method: The mice were sacrificed and the lungs excised. Then the lungs were fixed in 4% paraformaldehyde (45 min, 0° C.). After fixation, lungs were washed in PBS (60 min) and placed in increasing concentrations of sucrose (10% sucrose/5% glycine in PBS for 30 min; 20% sucrose/10% glycine in PBS for 30 min; 30% sucrose/25% glycine in PBS for 12 h at 4° C.). Lungs were embedded in OCT and 12-μm sections cut with a Tissue-Tek II cryostat. The sections were air dried and fixed with 4% paraformaldehyde for 15 min. After 3 washes in PBS, the slides were blocked with 5% milk in PBS for 1 h, and then incubated overnight with anti-β2-adrenergic receptor antibody (1:200, Santa Cruz Biotechnology) in blocking solution. Slides were washed in PBS and incubated with secondary antibody (1:200, Cy3 goat anti-rabbit, 16 h at 4° C.). […] After washing with PBS, coverslips were mounted and viewed by epifluorescent microscopy.

[7] = asthmatic mice, acute: single intravenous bolus 15 minutes before methacholine
[8] = asthmatic mice, chronic administration, 28 days (in chow; salbutamol by osmotic minipump)

Compound | Decreased Raw (asthmatic mice [1]; 15 minutes of administration) | Decreased Raw (asthmatic mice [1]; 2 days of administration) | Decreased Raw (asthmatic mice [1]; 28 days of administration) | airway responsiveness to methacholine provocation (airway resistance, Raw) (asthmatic mice [1]; [7]) | airway responsiveness to methacholine provocation (airway resistance, Raw) (asthmatic mice [1]; [8]) | Increased β2AR density (β2-adrenergic receptor [2]; 15 minutes of administration) | Increased β2AR density (β2-adrenergic receptor [2]; 2 days of administration) | Increased β2AR density (β2-adrenergic receptor [2]; 28 days of administration) | increase of the level of β2-adrenergic receptors over the non-treated mice (β2-adrenergic receptor [2]) | Bmax (receptor density) (β2-adrenergic receptor [2]) | βmax (receptor density) (β2-adrenergic receptor [2]) | other results
COc1ccccc1OCCNCC(O)COc1cccc2[nH]c3ccccc3c12 (centres unmarked) [Carvedilol, carvedilol] | no | no | yes | enhanced the airway responsiveness | does reduce airway hyperresponsiveness; also recorded: reduced the responsiveness of asthmatic mice to methacholine provocation; also recorded: providing protection from airway hyperresponsiveness | no | no | yes | over 10 fold | 86.3 ± 19.42 femtomoles of sites per milligram of protein | 904.1 ± 43.46 femtomoles of sites per milligram of protein | shift of methacholine dose-airway response relationship (asthmatic mice [1]; asthmatic mice, chronic delivery, 28 days): shifts the sensitivity of the responsiveness to methacholine to lower concentrations; also recorded: shifted the methacholine dose-airway response relationship to the left; Increased β2AR density (β2-adrenergic receptor [2]; 28 days of administration, listed as carvedilol): increase in receptor density; bronchoconstriction (airway resistance) (asthmatic mice [3]): higher bronchoconstriction than these treatments but less than the non-drug treated sensitized and challenged (NTX S/C) mice; clinical outcome (mortality, benefit over placebo) (patients with CHF): significant mortality reduction
CC(C)(C)NCC(O)COc1cccc2c1CC(O)C(O)C2 (centres unmarked) [Nadolol, nadolol] | no | yes | yes | enhanced the airway responsiveness | produced a decrease in airway responsiveness; also recorded: providing protection from airway hyperresponsiveness; also recorded: reduced the responsiveness | no | yes | yes | nearly eightfold increase | 181.9 ± 48.28 femtomoles of sites per milligram of protein | 785.5 ± 154.8 femtomoles of sites per milligram of protein | airway resistance (Raw) (asthmatic mice [1]; asthmatic mice, 1 ppm in chow): identical to the untreated mice; Increased β2AR density (β2-adrenergic receptor [2]; 2 days of administration, listed as nadolol): increase in receptor density; Increased β2AR density (β2-adrenergic receptor [2]; 28 days of administration, listed as nadolol): increase in receptor density; baseline airway resistance ([4]; pretreated 0.72 mg/kg i.p.): same baseline airway resistance; airway resistance upon methacholine challenge ([4]; pretreated 0.72 mg/kg i.p. 15 minutes prior to methacholine, methacholine infused to EC70): ~4.5 units; phospholipase C (ratio of PLC-β1 to actin) (Phospholipase C (PLC-β1)): significantly decreases the activity of phospholipase C; airway hyperresponsiveness (asthmatic mice [5]; administered acutely): worsens airway hyperresponsiveness; airway hyperresponsiveness (asthmatic mice [5]; administered chronically): prevents airway hyperresponsiveness; labeling with anti-β2-adrenergic receptor antibodies in lungs (β2-adrenergic receptor [6]): considerably more intense; also recorded: increase in β-adrenergic receptor density
